# In US8858952B2, “Methods and materials for generating T cells” (Mayo Foundation for Medical Education and Research, priority 2009, dated 2014):
# Where no end group is shown, it is not given here. [ ]: non-standard residue; d: D form. Ava = NCCCCC(=O)O
# Legend:
# FR74-specific T cells = assay: IFN-γ ELIspot of T cell cultures generated ex vivo with polypeptide-pulsed DC; assay type: cell-based, FVB/N mice
# Method: FIG. 4 is a graph plotting the results an IFN-γ ELIspot analyses of T cell cultures incubated with the indicated polypeptides. Epitope nesting greatly augments the numbers of antigen-specific T cells. T cells were tested in ELIspot against native FR74 polypeptide at various concentrations. Each data point is the mean of 3 determinations.
# FIG. 6. FR74-specific T cells generated with modified polypeptides recognized tumor lysates. […] Each bar is the mean (±s.e.m.) of 3 replicates.
# FIG. 7. […] The T cells were generated at varying concentrations of polypeptides (x-axis). Each point is the mean (±s.e.m.) of 3 replicates.
# In terms of proliferation, only the dual modified polypeptide was able to generate T cells that were able to proliferate at 10^−9 g/mL (FIG. 5).
# In order to determine whether furin cleavage is required, two methods are used: furin insensitive linkers and furin inhibitors. Blockade of enhanced ex vivo expansion mediated by the DC3 peptide using these two methods is powerful evidence, outside of a furin knockout mouse, that furin is required for the actions of DC3. Although it has already been shown that DC3 must be linked to antigen, as a control T cells are expanded using free FR74 mixed with free DC3. To test the role of furin with furin-insensitive linkers, RARR (SEQ ID NO:4) is replaced with VRVV (SEQ ID NO:41) with the polypeptides FR74.1, FR74.3, and FR74.8 as shown in FIG. 17. In parallel with these cultures, cultures are included in which inhibitors are included. The stoichiometric peptidyl inhibitor decanoyl-Arg-Val-Lys-Arg-CH2CL (SEQ ID NO:42) and α1-antitrypsin Portland, which are the two most commonly used inhibitors, are employed. […] Cultures are examined over a range of concentrations of inhibitors and assayed as described with ELIspot and proliferation assays. To generate Th cells, CD4^+ T cells are purified by incubation of splenocytes with anti-CD4^+ MACS microbeads (Miltenyi, Auburn, Calif.) for 20 minutes at 4° C., followed by positive selection of CD4^+ T cells using an AutoMACS automatic magnetic cell sorter according to the manufacturer's specifications. Th cell lines are established with bone marrow derived DC at a concentration of 5×10^4 T cells/mL in 24-well tissue culture-treated plates in complete medium on day 0. To derive the dendritic cells (DCs), bone marrow is harvested from the long bones of FVB/N mice and seeded in 6-well plates (3×10^6/well) in complete media with murine GM-CSF (10 ng/mL) and IL-4 (1 ng/mL). Media and cytokines are replaced after 3 days. On day 5, CPG is added to the cultures at 1 μg/mL, and the cells are ready for T cell induction on day 6. The tissue culture-generated DC are pulsed with 10 μg/mL FR74 peptide or its modifications and 10 μg/mL B7DC-crosslinking antibody at 37° C. for 4 hours. In these experiments, constant mass is maintained. Next, the peptide-loaded DC are washed with media, and the CD4+ T cells are added, and on days 8 and 10, IL-2 (50 U/mL) is added. On day 15, cells are assayed. For the ELIspot analysis, anti-IFN-γ (Pharmingen) antibody is added to a 96-well nitrocellulose-backed plate (NC-plate, Millipore) at 50 μL/well at a concentration of 10 μg/mL in PBS and incubated overnight at 4° C. The day of analysis, the NC-plate is washed with PBS and blocked for 1-2 hours at 37° C. with PBS/2%BSA. After blocking, the plate are again washed. The Th cells are transferred to the antibody-coated plates. Syngeneic naïve CD4 T cells alone without peptide antigen are used as the negative control. Th cells are seeded at 5×10^4 cells/well with a range of native (i.e., FR74) peptide, irrelevant peptide, FRαMMC tumor lysate, irrelevant tumor lysate, media or concanavalin A. Irradiated syngeneic splenocytes are added at 1 ×10^5 cells/well as antigen-presenting cells. The plate is incubated at 37° C. for 24 hours. The plate are washed with PBS/0.05% Tween-20, and 100 μL/well biotinylated anti-IFN-γ(5 μg/mL, Pharmingen) antibody are added to each well. […]
# Foxp3^+ T cells = assay: Flow cytometry of CD4 T cell lines for FoxP3 expression; assay type: cell-based, FVB/N mice; details: FIG. 31
# Source text: FIG. 31. […] Flow cytometry dot plots of naïve splenocytes, FR74-specific, FR74.4-specific CD4 T cell lines evaluating for FoxP3 expression. Quadrants set at isotype signal, and the lower right quadrant is percent of total cells in lymphocyte gate. T cells were derived from FVB/N mice.
substance,measurement,setting,value
FR74.4: dual conjugated polypeptide: FR74 nested between Ii-key and DC3 (Ac-LRMK[Ava]KDISYLYRFNWNHCGRARRFYPSYHSTPQRP),response of generated T cells to naturally processed antigen,"FR74-specific T cells; DC pulsed with FRα-expressing tumor cells, FIG. 6",retain the capability to respond to naturally processed antigen
same,lowest peptide concentration at which generated T cells respond,"FR74-specific T cells; IFN-γ ELIspot against native FR74, FIG. 4",10^−9 g/mL
same,ex vivo generation of FR74-specific T cells under equal molar amounts,"FR74-specific T cells; equal molarity, FIG. 7",superior ex vivo generation of FR74-specific T cells relative to the native polypeptide
same,generation of FR74-specific T cells,"FR74-specific T cells; within 12 days of culture, compared to controls, equal masses, FIG. 4",T cell reactivity greater than either modification alone
same,expansion of Foxp3+ T cells,Foxp3^+ T cells,blocks expansion of Foxp3^+ T cells
